Measured values taken from ChEMBL document CHEMBL1201862, “PubChem BioAssay data set” (2004).
Activity calls are given as the source filed them.

What was measured:
[1] = alpha-synuclein stem-loop luciferase translation blockers – H4 neuroglioma cells, luminescence, confirmation (AID 1988); format: functional, cell-based
BJ [2] = experiment: BJ-TERT-LT-ST fibroblast viability loss – cell-based, RAS-independent, luminescence, dose response (AID 1935); format: functional; settings: Homo sapiens;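 note: BJ fibroblasts immortalized with TERT plus LT and ST oncogenes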
BJ [3] = experiment: cells; format: functional, cell-based; settings: Homo sapiens
Galanin receptor type 2 = Galanin receptor type 2 (Homo sapiens, UniProt O43603); experiment: Dose Response cell-based high-throughput screening assay to identify agonists of galanin receptor 2 (GALR2). [Related pubchem assays: 864 ]; format: functional
Sequence of Galanin receptor type 2 (O43603 whole entry): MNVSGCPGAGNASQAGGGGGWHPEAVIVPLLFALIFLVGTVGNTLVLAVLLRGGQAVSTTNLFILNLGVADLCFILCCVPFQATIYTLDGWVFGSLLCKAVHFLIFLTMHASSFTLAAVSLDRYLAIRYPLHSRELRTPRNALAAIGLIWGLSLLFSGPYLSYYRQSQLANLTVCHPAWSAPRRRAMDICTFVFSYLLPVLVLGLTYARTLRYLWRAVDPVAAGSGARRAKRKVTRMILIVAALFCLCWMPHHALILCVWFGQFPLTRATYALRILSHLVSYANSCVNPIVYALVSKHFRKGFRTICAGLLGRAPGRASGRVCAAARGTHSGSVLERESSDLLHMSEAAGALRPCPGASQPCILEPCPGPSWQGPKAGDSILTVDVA

[4] = DRD fibroblast viability loss – cell-based, non-viral oncogenic, luminescence, dose response (AID 1934); format: functional; settings: Homo sapiens
[5] = luciferase reporter signal suppression in cells – H4 neuroglioma cells, luminescence, dose response (AID 1990); format: functional, cell-based
BJ [6] = experiment: growth inhibition of engineered Ras-driven BJ cells – cell-based, alamar blue fluorescence, cherrypicked samples, dose response (AID 2631); format: functional; settings: Homo sapiens;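 note: confirmatory dose-response assay in RAS-dependent BJ fibroblasts engineered with TERT, LT and ST, with cytotoxicity read by fluorescence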
[7] = Cytotoxicity screening for potential Inhibitors of Bacterial Capsule Biogenesis. [Related pubchem assays (depositor defined):AID488970]; format: functional
[8] = viability of PTEN-deleted HCT116 cells – cell-based, HCT116 PTEN knockout, dose response (AID 1047); format: functional;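 note: HCT116 colon tumor cells with PTEN knocked out; cells exposed to compound for 60 hours before readout; potency for loss of cell viability measured by luminescence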
[9] = Luminescence Cell-Based Dose Response HTS to Identify Inhibitors of 5'UTR Stem-Loop Driven Prion Protein mRNA Translation in H4 Neuroglioblastoma Cells. [Related pubchem assays: 1827 (Project Summary), 1813 (Primary HTS)]; format: functional
BJ [10] = experiment: BJ-TERT fibroblast viability loss – cell-based, RAS-independent, luminescence, dose response (AID 1933); format: functional; settings: Homo sapiens
[11] = viability of HCT116 lacking mutant beta-catenin – cell-based, human colon tumor, dose response (AID 1045); format: functional;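 note: HCT116 colon tumor cells with beta catenin knocked out; cells exposed to compound for 60 hours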
Melanocortin receptor 4 = Melanocortin receptor 4 (Homo sapiens, UniProt P32245); format: functional, cell-based;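 note: Cell-based assay with luminescence read-out, confirmatory dose-response testing for agonist activity of biased ligands at MC4R; human U2OS cells with tagged receptor and beta-arrestin; potency of agonists that increase receptor coupling to beta-arrestin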
Sequence of Melanocortin receptor 4 (P32245 whole entry): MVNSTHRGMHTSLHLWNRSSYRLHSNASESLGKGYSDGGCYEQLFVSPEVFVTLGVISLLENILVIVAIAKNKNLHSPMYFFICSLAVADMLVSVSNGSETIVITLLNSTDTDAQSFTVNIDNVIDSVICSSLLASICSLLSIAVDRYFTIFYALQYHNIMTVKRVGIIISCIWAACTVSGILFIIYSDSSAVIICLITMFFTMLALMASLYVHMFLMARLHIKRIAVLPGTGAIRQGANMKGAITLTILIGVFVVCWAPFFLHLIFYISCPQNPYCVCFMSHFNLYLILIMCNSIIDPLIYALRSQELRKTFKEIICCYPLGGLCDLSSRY

[12] = HGIII-sPLA2 enzyme inhibition potency – biochemical, QFRET, IC50, dose response (AID 743457);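 note: green fluorescence rise as the enzyme cleaves BODIPY PC-A2 in liposomes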
[13] = fluconazole-exposed Candida albicans growth modulators – fluorescence, retest, confirmation (AID 2467); format: functional, cell-based
[14] = biological target: Intestinal-type alkaline phosphatase (Mus musculus, UniProt P24822); experiment: PubChem AID 488874; format: functional
Sequence of Intestinal-type alkaline phosphatase (Mus musculus, UniProt P24822) (P24822 whole entry): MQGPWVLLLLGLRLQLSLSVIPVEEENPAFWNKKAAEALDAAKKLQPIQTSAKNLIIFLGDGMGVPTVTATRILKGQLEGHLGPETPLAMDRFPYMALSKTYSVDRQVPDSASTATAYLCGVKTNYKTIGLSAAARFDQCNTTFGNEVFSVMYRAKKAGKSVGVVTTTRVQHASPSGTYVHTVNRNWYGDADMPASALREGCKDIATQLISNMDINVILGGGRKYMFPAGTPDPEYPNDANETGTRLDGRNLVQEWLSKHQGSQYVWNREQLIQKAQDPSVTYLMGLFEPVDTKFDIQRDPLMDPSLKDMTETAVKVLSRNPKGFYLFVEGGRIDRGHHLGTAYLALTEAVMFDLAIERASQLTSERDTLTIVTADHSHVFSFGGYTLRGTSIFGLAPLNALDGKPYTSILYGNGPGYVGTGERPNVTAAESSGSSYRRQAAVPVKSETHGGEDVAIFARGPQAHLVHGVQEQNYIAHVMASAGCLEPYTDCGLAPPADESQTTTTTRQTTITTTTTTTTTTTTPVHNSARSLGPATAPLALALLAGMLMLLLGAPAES

[15] = biological target: T1, Intestinal-type alkaline phosphatase (Homo sapiens, UniProt P09923); experiment: activation of human intestinal alkaline phosphatase – biochemical, luminescent, uHTS hits, set 2, dose response (AID 488817); format: functional;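 note: potency of activators that raise enzyme activity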
T1 sequence (P09923 whole entry): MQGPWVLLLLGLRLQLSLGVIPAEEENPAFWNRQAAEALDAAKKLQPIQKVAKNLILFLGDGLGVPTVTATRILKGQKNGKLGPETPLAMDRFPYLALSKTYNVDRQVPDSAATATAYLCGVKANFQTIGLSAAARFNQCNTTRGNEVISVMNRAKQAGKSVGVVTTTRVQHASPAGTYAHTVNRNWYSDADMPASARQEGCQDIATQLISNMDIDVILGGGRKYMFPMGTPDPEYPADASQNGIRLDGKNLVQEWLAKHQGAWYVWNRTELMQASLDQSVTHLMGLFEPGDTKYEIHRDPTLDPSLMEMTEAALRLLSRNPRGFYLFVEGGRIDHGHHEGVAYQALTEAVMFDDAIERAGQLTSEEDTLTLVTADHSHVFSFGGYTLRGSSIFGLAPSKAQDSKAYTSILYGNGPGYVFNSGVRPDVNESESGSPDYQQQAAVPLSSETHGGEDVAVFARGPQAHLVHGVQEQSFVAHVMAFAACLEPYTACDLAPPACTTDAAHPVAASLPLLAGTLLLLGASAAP

[16] = biological target: T2, Alkaline phosphatase, tissue-nonspecific isozyme (Homo sapiens, UniProt P05186); experiment: activation of tissue-nonspecific alkaline phosphatase – biochemical, TNAP isozyme, human IAP uHTS hits, selectivity assay for human IAP activator project, dose response (AID 488886); format: functional;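 note: potency of compounds raising TNAP activity as a selectivity check on IAP activators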
T2 sequence (P05186 whole entry): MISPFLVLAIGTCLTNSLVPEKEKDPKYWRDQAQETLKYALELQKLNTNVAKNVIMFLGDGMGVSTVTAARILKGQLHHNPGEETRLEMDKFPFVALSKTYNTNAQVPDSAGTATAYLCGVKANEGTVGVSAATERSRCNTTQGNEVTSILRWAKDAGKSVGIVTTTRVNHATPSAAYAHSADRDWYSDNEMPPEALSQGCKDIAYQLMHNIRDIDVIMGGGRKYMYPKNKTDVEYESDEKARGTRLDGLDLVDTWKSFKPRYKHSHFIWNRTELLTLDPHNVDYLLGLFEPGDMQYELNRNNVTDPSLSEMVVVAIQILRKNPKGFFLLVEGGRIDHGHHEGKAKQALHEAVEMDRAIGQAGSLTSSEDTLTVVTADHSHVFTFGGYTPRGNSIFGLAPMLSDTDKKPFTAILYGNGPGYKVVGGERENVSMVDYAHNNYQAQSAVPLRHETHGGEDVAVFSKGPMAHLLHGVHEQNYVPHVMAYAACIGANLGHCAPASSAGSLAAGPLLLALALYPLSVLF

[17] = biological target: T1, Intestinal-type alkaline phosphatase; experiment: human intestinal alkaline phosphatase activators, dose response, biochemical, luminescence, uHTS hits (AID 463120); format: functional
[18] = NIH-3T3 fibroblast cytotoxicity, dose response, cytotoxicity control, cell-based, fluorescence, Alamar Blue, secondary assay (AID 2327); format: functional;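 note: NIH-3T3 mouse fibroblasts cultured with fluconazole at 8 µg/mL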
[19] = biological target: G-protein coupled receptor 35 (Homo sapiens, UniProt Q9HC97); experiment: inhibition of zaprinast-stimulated GPR35 beta-arrestin translocation – imaging, U2OS, beta-arrestin-GFP, zaprinast agonist, primary screen (AID 2058); format: functional;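 note: antagonist potency meaning inhibition of agonist-induced arrestin redistribution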
Sequence of G-protein coupled receptor 35 (Q9HC97 whole entry): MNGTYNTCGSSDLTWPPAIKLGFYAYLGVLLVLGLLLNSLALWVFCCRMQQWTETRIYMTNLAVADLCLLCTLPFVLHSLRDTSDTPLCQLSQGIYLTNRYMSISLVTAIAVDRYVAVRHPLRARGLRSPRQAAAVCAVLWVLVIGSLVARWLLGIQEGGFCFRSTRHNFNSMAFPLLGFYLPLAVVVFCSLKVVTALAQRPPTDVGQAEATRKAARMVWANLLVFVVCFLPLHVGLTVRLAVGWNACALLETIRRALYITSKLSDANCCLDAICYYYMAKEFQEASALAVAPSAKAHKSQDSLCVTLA

[20] = biological target: T3, Rac GTPase-activating protein 1 (Homo sapiens, UniProt Q9H0H5); experiment: blockers of MgcRacGAP-driven Rac1 GTP hydrolysis – biochemical, ADP Hunter fluorescence, primary and confirmatory, confirmation (AID 624330); format: functional
T3 sequence (Q9H0H5 whole entry): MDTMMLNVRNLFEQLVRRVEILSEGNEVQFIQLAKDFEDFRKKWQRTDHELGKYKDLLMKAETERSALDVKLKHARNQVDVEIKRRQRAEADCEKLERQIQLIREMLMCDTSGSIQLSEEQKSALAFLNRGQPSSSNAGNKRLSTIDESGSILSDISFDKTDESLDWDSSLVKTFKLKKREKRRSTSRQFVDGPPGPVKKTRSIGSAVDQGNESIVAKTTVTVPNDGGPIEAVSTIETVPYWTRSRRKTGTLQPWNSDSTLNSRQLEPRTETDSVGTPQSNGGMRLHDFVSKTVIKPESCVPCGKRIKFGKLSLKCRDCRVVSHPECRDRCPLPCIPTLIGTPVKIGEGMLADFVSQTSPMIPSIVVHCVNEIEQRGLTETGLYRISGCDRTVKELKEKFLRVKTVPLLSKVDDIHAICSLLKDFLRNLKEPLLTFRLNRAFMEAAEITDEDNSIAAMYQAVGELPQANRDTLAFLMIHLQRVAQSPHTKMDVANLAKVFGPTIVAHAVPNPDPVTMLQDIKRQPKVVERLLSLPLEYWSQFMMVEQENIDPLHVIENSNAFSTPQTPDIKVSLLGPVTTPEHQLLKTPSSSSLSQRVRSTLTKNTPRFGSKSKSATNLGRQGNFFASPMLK

Trypsin = Trypsin (Sus scrofa, UniProt P00761); experiment: trypsin protease activity blockade – biochemical, quenched peptide fluorescence, cherry-pick, selectivity assay for Rce1 protease inhibitor project, dose response (AID 488789)
Sequence of Trypsin (P00761 whole entry): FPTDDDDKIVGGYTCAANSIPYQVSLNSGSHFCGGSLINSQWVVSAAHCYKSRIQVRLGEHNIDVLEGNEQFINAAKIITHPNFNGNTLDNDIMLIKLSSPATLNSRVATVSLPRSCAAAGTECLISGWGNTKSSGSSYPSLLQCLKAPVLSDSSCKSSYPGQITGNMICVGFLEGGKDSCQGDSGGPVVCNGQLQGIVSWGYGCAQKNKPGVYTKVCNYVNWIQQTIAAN

CAAX prenyl protease 2 = CAAX prenyl protease 2 (Saccharomyces cerevisiae S288c, UniProt Q03530); format: biochemical
Sequence of CAAX prenyl protease 2 (Q03530 whole entry): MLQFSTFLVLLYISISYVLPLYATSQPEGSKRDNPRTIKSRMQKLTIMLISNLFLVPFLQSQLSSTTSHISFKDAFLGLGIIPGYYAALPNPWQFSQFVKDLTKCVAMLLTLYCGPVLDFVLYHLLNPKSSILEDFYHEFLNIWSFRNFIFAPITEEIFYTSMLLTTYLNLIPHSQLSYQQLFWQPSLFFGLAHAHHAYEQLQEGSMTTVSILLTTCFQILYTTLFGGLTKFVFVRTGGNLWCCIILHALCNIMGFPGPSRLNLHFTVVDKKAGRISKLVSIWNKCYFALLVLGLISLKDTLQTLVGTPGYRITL

For CCCOc1ccc(C(=O)C(CCC(CNCC)C(=O)c2ccc(OCCC)cc2)CNCC)cc1 (centres undefined), the EC50 [1] was 6.08 µM (active), the EC50 (BJ [2]) was 2.72 µM (inconclusive) and the EC50 (BJ [3]) was 4.61 µM (active). The EC50 (Galanin receptor type 2) was > 55.7 µM (not active), the EC50 [4] was 3.31 µM (active) and the EC50 [5] was > 120 µM (not active). The EC50 (BJ [6]) was 0.513 µM (active), the CC50 [7] was 3.18 µM (active) and the EC50 [8] was 1.76 µM (active). The EC50 [9] was 8.92 µM (active), the EC50 (BJ [10]) was 2.57 µM (inconclusive) and the EC50 [11] was 1.88 µM (active). The EC50 (Melanocortin receptor 4) was > 89.2 µM (inactive).
With O=C(NNC(=S)NC1CCCCC1)c1ccccc1Br the IC50 [12] was > 122 µM (inactive), the EC50 [13] was 2.94 µM (active) and the IC50 [14] was 50.3 µM (active). The EC50 [15] was 14.9 µM (active), the EC50 [16] was 16.1 µM (active) and the EC50 [17] was 12.1 µM (active). For the same compound, the EC50 [18] was 21.7 µM (inconclusive).
In the case of Nc1[nH]c2cc([N+](=O)[O-])ccc2c1-c1ccccn1, the IC50 [19] is reported as 0.787 µM (active) and the IC50 [20] is reported as 82.9 µM (active).
For COc1ccc(-c2cc3nc(C)c(CCC(=O)N4CCN(c5ccccn5)CC4)c(C)n3n2)c(OC)c1, the AC50 (Trypsin) was 7.2 µM (active) and the AC50 (CAAX prenyl protease 2) was > 100 µM (inactive).
